Measured values reported in EP3666770A1, “NOVEL HETEROCYCLIC COMPOUNDS AS CDK8/19 INHIBITORS” (Joint Stock Company "Biocad", priority 2017, dated 2019).
Like-named read-outs stand apart in the source and are kept apart here.

What was measured:
[1] = test system: KG-1; assay: Cell-based antiproliferative test (AlamarBlue), KG-1; settings: 120 h incubation, average values of several tests, read-out: KG-1 IC50, mkM
Description: (§1) Antiproliferative activity of CDK8 inhibitors according to the present invention was measured in a cell-based test on continuous cell cultures MV4-11 (biphenotypic myelomonocytic leukemia, ATCC® CRL-9591™), KG-1 (acute myeloid leukemia, ATCC® CCL-246™), HL-60 (acute promyelocytic leukemia, ATCC® CCL-240™) using a vital stain AlamarBlue (ThermoFisher, #DAL1100). The cells were grown in RPMI-1640 (PanEco, #C330p) medium with addition of 10% FBS (Gibco, #16140-071); washed and resuspended in culture medium with 10% FBS (Gibco, #16140-071) in 96-well culture plates (Corning, #3599) with ≈ 10 ×10^3 cells in […] of medium per well. The compounds in question were dissolved in DMSO and diluted with a medium with 10% FBS (Gibco, #16140-071) to a final concentration ranging form 0 to 100 µM. […] of diluted compounds were then added to each well (final DMSO concentration was less than 1%) and incubated under 5% CO2 atmosphere at 37°C for 120 h. After incubating, 15 µL of AlamarBlue (ThermoFisher, #DAL1100) reagent was added per well, contents of plates were mixed in an orbital shaker (Biosan, Latvia) and further incubated for 3-5 h at 37°C under 5% CO2 atmosphere. Number of living cells was estimated using a microplate spectrophotometer (Tecan Infinite M200Pro, Switzerland) measuring fluorescent signal at the excitation wavelength (λEx) of 540 nm and emission wavelength (λEm) of 590 nm.
(§2) IC50 was calculated using Magellan 7.2 software (Tecan, Switzerland) approximating experimental points by four-parameter logistic model with the optimization by Levenberg-Marquardt (table 7, table 7).

[2] = test system: MV4-11; assay: Cell-based antiproliferative test (AlamarBlue), MV4-11; settings: 120 h incubation, average values of several tests, read-out: MV-4-11 IC50, mkM
Description: as §1, §2

[3] = Permeability through Caco-2 cell monolayer; assay type: in vitro ADME; settings: human, Caco-2; for Papp A→B at 2 h, 10 µM: A->B transfer, pH 6.5 -> pH 7.4, 2 hours at 37 °C; for efflux ratio at 2 h, 10 µM: efflux = Papp B-A / Papp A-B
Description: Estimation of permeability through Caco-2 cell monolayer enables assessment of the ability of the substances to penetrate through biological membranes by means of both active and passive transport.
Intestinal epithelial cells Caco-2 were grown on filter inserts (pore size 0.4 µm, BD Falcon with High Density) for 21 days; monolayer integrity was then checked using Lucifer Yellow (Sigma-Aldrich, USA) according to the standard protocol. In A->B transfer ("intestinal lumen" - "blood stream" transfer), solutions of the test substances in buffer, pH 6.5 (HBSS, 10 mM HEPES, 15 mM glucose) at a concentration of 10 µM were added to the upper chamber; whereas the lower chamber was filled with buffer, pH 7.4 (HBSS, 10 mM HEPES, 15 mM Glucose, 1% BSA). In B->A transfer ("blood stream" - "intestinal lumen" transfer), the upper chamber was filled with buffer, pH 6.5, whereas the solutions of the test substances in buffer, pH 7.4, at a concentration of 10 µM were added to the lower chamber. A highly permeable substance propranolol was used as a control.
After 2 hours incubation at 37 ° C under an atmosphere containing 5% CO2, the amounts of the test substances in the upper and lower chambers were measured by HPLC using an Agilent1200 HPLC system (Agilent, USA), proteins were preliminarily precipitated with acetonitrile. Chromatographic analysis was performed in a gradient elution regime with a flow rate of 1 mL/min. The peak areas corresponding to the compounds were detected on chromatograms.
The value was calculated using the formula: efflux = Papp B−A /Papp A−B , [formula] where • Papp A-E - the value of permeability direct analysis A→ B; • Papp B-A - the value of the permeability of the reverse analysis B→ A.

[4] = General cytotoxicity test on HepG2 cells; assay type: cell-based; settings: human, HepG2 cells; 72 h incubation; 200 to 0.78 µM; average values of several tests; read-out: Hep-G2 CC50, mkM
Description: Cell viability was assessed using the above method. Table 6. […] The results are presented as average values of activity obtained in several tests.

[5] = Enzyme stability in human liver microsomes; assay type: in vitro ADME; settings: pH 7.4; 0,5 mg/mL pooled human liver microsomes; 10 µM compound; 37°C; pH=7,4
Description: Measuring of candidates' enzyme stability enabled estimation of the stability of the present compounds towards the action of enzymes in liver microsomes.
Enzyme degradation rate was measured by incubating the reaction mixture in a dry block thermostat at 37°C, said reaction mixture comprising 0,5 mg/mL of pooled human liver microsomes (XenoTech, USA, cat#H2620), 10 µM compound, 2 mM β-nicotinamide adenine dinucleotide (Carbosynth, UK, cat#NN10871) and 4 mM magnesium chloride in 0,1 M sodium-phosphate buffer, pH=7,4. The reaction was quenched with acetonitrile (100 µL of acetonitrile / 100 µL of the reaction mixture). After quenching, the samples were centrifuged at 10000 rpm for 10 minutes. Supernatant fluid was tested by chromatographic technique using Agilent1200 (Agilent, USA). Chromatographic analysis was performed in a gradient elution regime with a flow rate of 1 mL/min. A graph of the logarithm of substance's peak area as a function of time was made. The dependent factor of the line corresponded to the elimination rate constant K based on which the drug's half-life t1/2 and degradation rate CLint were calculated: Elimination rate constant (k) = (−gradient) [formula] [formula] V(μL/mg) = (volume of incubation(μL))/(protein in the incubation(mg)) [formula] [formula]

[6] = Chemical stability in simulated gastric fluid (SGF); assay type: physicochemical; settings: SGF without enzymes, pH=1,4; 10 µm; 2 hours at 37°C; substance amount in % after thermostatting
Description: (§3) Chemical stability of the compounds described herein was determined in simulated gastric fluid and human blood plasma.
SGF concentrate without enzymes, pH=1,4 (Sigma Ireland, cat#01651) was used as simulated gastric fluid. Initial candidate solution (10 mM in DMSO) was diluted with an SGF working solution to a concentration of […] (test solution). The test solution was incubated in a dry block thermostat for 2 hours at 37°C. HPLC with Agilent 1200 liquid chromatography system (Agilent, USA) was employed to determine peak areas of the compounds in test samples, said peak areas corresponding to the initial test time (prior to incubation) and the final test time (after incubation in a dry block thermostat for 2 hours at 37°C). Chromatographic analysis was performed in a gradient elution regime with a flow rate of 1 mL/min. Substance amount in % in a sample after thermostatting was determined.

[7] = Chemical stability in human blood plasma; assay type: in vitro ADME; settings: pooled human blood plasma; 10 µM; 4 hours at 37°C; substance amount in % after thermostatting
Description: as §3
Determination of stability in human blood plasma was performed using pooled human blood plasma taken from ten healthy donors. The initial candidate solution (10 mM in DMSO) was diluted with pooled blood plasma to a concentration of […] (test solution). The test solution was incubated in a dry block thermostat for 4 hours at 37°C. HPLC with Agilent 1200 liquid chromatography system (Agilent, USA) was employed to determine peak areas of the compounds in test samples, said peak areas corresponding to the initial test time (prior to incubation) and the final test time (after incubation in a dry block thermostat for 4 hours at 37°C), proteins were preliminarily precipitated with acetonitrile. Chromatographic analysis was performed in a gradient elution regime with a flow rate of 1 mL/min. Substance amount in % in a sample after thermostatting was determined.

Row | Structure (SMILES) | IC50 ([1]; Homo sapiens, KG-1) [nM] | IC50 [1] [nM] | IC50 [2] [nM] | Papp A→B at 2 h, 10 µM [3] [×10⁻⁶ cm/s] | efflux ratio at 2 h, 10 µM [3] | IC50 ([2]; Homo sapiens, MV4-11, 120 h) [nM] | CC50 at 72 h [4] [nM] | microsomal CLint at 10 µM [5] [µL/min/mg] | Stability in SGF, % [6] [%] | Stability in blood plasma, % [7] [%]
1 | Cn1cc(-c2ccc(-c3cnc(N)c4ncc(C(=O)NC5CC5)cc34)cc2)cn1 [CDK8-3-38, 8-Amino-N-cyclopropyl-5-(4-(1-methyl-1H-pyrazol-4-yl)phenyl)-1,7-naphthyridine-3-carboxamide] | < 10 | – | – | – | – | – | – | – | – | –
2 | Cn1cc(-c2ccc(-c3cncc4ncc(C(=O)NC5CC5)cc34)cc2)cn1 [CDK8-3-37] | – | 4 | 22 | – | – | – | – | – | – | –
3 | O=C(c1cccnc1)c1c[nH]c2ncc(-c3ccc(N4CCOCC4)c(O)c3)cc12 [CDK8-4-7, (5-(3-Hydroxy-4-morpholinophenyl)-1H-pyrrolo[2,3-b]pyridin-3-yl) (pyridin-3-yl) methanone] | – | – | – | 64.5 | 0.34 | 390 | > 200000 | 23.2 | 99.1 | 93.8
4 | CN(C)c1ccc(-c2cnc3[nH]cc(C(=O)c4cccnc4)c3c2)cc1O [CDK8-4-5] | – | – | – | 87.6 | 0.12 | 620 | 7700 | 26.6 | 99.2 | 100
5 | COC1CN(C(=O)c2cnc3c(N)ncc(-c4ccc(-c5cnn(C)c5)cc4)c3c2)C1 [CDK8-3-34, (8-Amino-5-(4-(1-methyl-1H-pyrazol-4-yl)phenyl)-1,7-naphthyridin-3-yl)(3-methoxyazetidin)methanone] | 5 | – | – | – | – | – | – | – | – | –
6 | O=C(C1CN(c2cc(F)c3ncn(-c4ccc(-c5cn[nH]c5)cc4)c3c2)C1)N1CCOCC1 [CDK8-1-8, (1-(1-(4-(1H-Pyrazol-4-yl)phenyl)-4-fluoro-1H-benzo[d]imidazol-6-yl)azetidin-3-yl)(morpholino)methanone] | – | – | – | 19.7 | 2.9 | 3920 | > 200000 | 23.4 | 100 | 97.8
7 | O=C(c1ccccn1)c1c[nH]c2ncc(-c3ccc(N4CCOCC4)cc3)cc12 [CDK8-4-36, (5-(4-Morpholinophenyl)-1H-pyrrolo[2,3-b]pyridin-3-yl) (pyridin-2-yl)methanone] | 1590 | – | – | – | – | 460 | 17000 | – | 100 | 100
8 | O=C(c1ccncc1)c1c[nH]c2ncc(-c3ccc(N4CCOCC4)c(O)c3)cc12 [CDK8-4-11, (5-(3-Hydroxy-4-morpholinophenyl)-1H-pyrrolo[2,3-b]pyridin-3-yl) (pyridin-4-yl) methanone] | – | – | – | 13.9 | 1.54 | 1330 | > 200000 | 15 | 98.1 | 88.5
9 | COc1ccc(-c2cnc3[nH]cc(C(=O)c4ccncc4)c3c2)cc1 [CDK8-4-33, (5-(4-Methoxyphenyl)-1H-pyrrolo[2,3-b]pyridin-3-yl) (pyridin-4-yl)methanone] | – | – | – | 13.4 | 1.5 | 19700 | > 100000 | 21.2 | 100 | 100
10 | CN1CCN(C(=O)c2cnc3c(N)ncc(-c4ccc(-c5cnn(C)c5)cc4)c3c2)CC1 [CDK8-3-31, (8-Amino-5-(4-(1-methyl-1H-pyrazol-4-yl)phenyl)-1,7-naphthyridin-3-yl)(4-methylpiperazin-1-yl) methanone] | 2 | – | – | – | – | – | – | – | – | –
11 | COc1cc(-c2cnc3[nH]cc(C(=O)c4ccccn4)c3c2)ccc1N1CCOCC1 [CDK8-4-23, (5-(3-Methoxy-4-morpholinophenyl)-1H-pyrrolo[2,3-b]pyridin-3-yl) (pyridin-2-yl) methanone] | – | – | – | 36.9 | 0.14 | 100 | > 100000 | 12.8 | 100 | 87.4
12 | Cn1cc(-c2ccc(-n3cnc4ccc(N5CC(C(=O)N6CCOCC6)C5)c(F)c43)cc2)cn1 [CDK8-1-20, (1-(1-(4-(1-methyl-1H-pyrazol-4-yl)phenyl)-7-fluoro-1H-benzo[d]imidazol-6-yl)azetidin-3-yl) (morpholino)methanone] | – | – | – | – | – | > 1000 | > 200000 | 12.4 | 99.4 | 100
13 | O=C(C1CN(c2ccc3ncn(-c4ccc(-c5cn[nH]c5)cc4)c3c2)C1)N1CCOCC1 [CDK8-1-4, (1-(1-(4-(1H-pyrazol-4-yl)phenyl)-1H-benzo[d]imidazol-6-yl)azetidin-3-yl) (morpholino)methanone] | – | – | – | – | – | 700 | > 100000 | 18.8 | 98.2 | 100
